Where two headings read alike, the source gives them in different places.
Experiments:
Type in all cases: in vivo
[1] = system: Puccinia recondita (wheat); test: Foliar fungal disease control, Puccinia recondita on wheat
[2] = system: Erysiphe graminis hordei (barley); test: Foliar fungal disease control, Erysiphe graminis hordei on barley; settings: inoculated 24 hours before treatment
[3] = system: Venturia inaequalis (apple); test: Foliar fungal disease control, Venturia inaequalis on apple
[4] = system: Pyricularia oryzae (rice)
[5] = system: Cercospora arachidicola (peanut); test: Foliar fungal disease control, Cercospora arachidicola on peanut
[6] = system: Plasmopara viticola (vine); test: Foliar fungal disease control, Plasmopara viticola on vine
[7] = system: Maize (MZ); test: Plant growth regulating whole plant screen, maize; settings: 4000 ppm (4 kg/ha) spray
Protocol: (§1) This Example illustrates the plant growth regulating properties of compounds 1, 2, 5 and 12-15 of Table I when tested on a whole plant screen against two species of plant. The plant species are identified in Table IV with the leaf stage at which they were sprayed.
(§2) A formulation of each chemical was applied at 4000 ppm (4 kg/ha in a 1000 1/ha field volume) using a tracksprayer and a SS8004E (Teejet) nozzle.
(§3) After spraying, the plants were grown in a glasshouse with 25° C. day/22° C. night temperatures. Supplementary lighting was supplied when necessary to provide an average photoperiod of 16 hours (14 hours minimum).
(§4) After 2-6 weeks in the glasshouse, depending on species and time of year, the plants were visually assessed for morphological characteristics against a control plant sprayed with a blank formulation.

[8] = system: Apple (AP); test: Plant growth regulating whole plant screen, apple; settings: 4000 ppm (4 kg/ha) spray, visual score after 2-6 weeks
Protocol: as §1, §2, §3, §4

[9] = 100 ppm foliar spray plus root drench approx. 40 ppm a.i./dry soil, 1-2 days before inoculation
[10] = 100 ppm foliar spray plus root drench approx. 40 ppm a.i./dry soil

| Structure (SMILES) | disease control grading, PUCCINIA RECONDITA (WHEAT) [1, 9] | disease control grading, ERYSIPHE GRAMINIS HORDEI (BARLEY) [2, 10] | disease control grading, VENTURIA INAEQUALIS (APPLE) [3, 9] | disease control grading, P[…] (RICE) [4, 9] | disease control grading, CERCOSPORA ARACHIDICOLA (PEANUT) [5, 9] | disease control grading, PLASMOPARA VITICOLA (VINE) [6, 9] | other results |
| --- | --- | --- | --- | --- | --- | --- | --- |
| CON=C(C(=O)OC)c1ccccc1/C=C/c1ccccc1 (single isomer, unassigned) [Compound 1, methyl O-methyl (2-(E)-styrylphenyl)oximino-acetate] | 0 (60-100% of disease on untreated plants) | 0 (60-100% of disease on untreated plants) | 3 (trace - 5% of disease on untreated plants) | 0 (60-100% of disease on untreated plants) | 0 (60-100% of disease on untreated plants) | 4 | P = Phytotoxicity ([7]; after 2-6 weeks): 1 (less than 10%); A = Apical damage ([7]; visual score after 2-6 weeks): 3 (61-100%); G = Greening effect ([7]; visual score after 2-6 weeks): 2 (31-60%); I = Interligular or internodal length reduction ([7]; visual score after 2-6 weeks): 3 (61-100%); R = Retardation ([7]; visual score after 2-6 weeks): 3 (61-100%) |
| CON=C(C(=O)OC)c1ccccc1/C=C/c1ccco1 (single isomer, unassigned) [Compound 3] | 0 (60-100% of disease on untreated plants) | 0 (60-100% of disease on untreated plants) | 4 | 0 (60-100% of disease on untreated plants) | 0 (60-100% of disease on untreated plants) | 0 (60-100% of disease on untreated plants) |  |
| CON=C(C(=O)OC)c1ccccc1/C=C/c1ccco1 (single isomer, unassigned) [Compound 4] | 4 | 0 (60-100% of disease on untreated plants) | 4 | 3 (trace - 5% of disease on untreated plants) | 3 (trace - 5% of disease on untreated plants) | 4 |  |
| CON=C(C(=O)OC)c1ccccc1Oc1ccc([N+](=O)[O-])cc1 (single isomer, unassigned) [Compound 7] | 0 (60-100% of disease on untreated plants) | 1 (26-59% of disease on untreated plants) | 3 (trace - 5% of disease on untreated plants) | 0 (60-100% of disease on untreated plants) | 0 (60-100% of disease on untreated plants) | 3 (trace - 5% of disease on untreated plants) |  |
| CON=C(C(=O)OC)c1ccccc1OC1CCCCC1 (single isomer, unassigned) [Compound 10] |  |  |  |  |  |  | disease control grading, PUCCINIA RECONDITA (WHEAT) ([1]; 25 ppm foliar spray only): 3 (trace - 5% of disease on untreated plants); disease control grading, ERYSIPHE GRAMINIS HORDEI (BARLEY) ([2]; 25 ppm foliar spray only): 3 (trace - 5% of disease on untreated plants); disease control grading, VENTURIA INAEQUALIS (APPLE) ([3]; 25 ppm foliar spray only): 2 (6-25% of disease on untreated plants); disease control grading, P[…] (RICE) ([4]; 25 ppm foliar spray only): 3 (trace - 5% of disease on untreated plants); disease control grading, CERCOSPORA ARACHIDICOLA (PEANUT) ([5]; 25 ppm foliar spray only): 0 (60-100% of disease on untreated plants); disease control grading, PLASMOPARA VITICOLA (VINE) ([6]; 25 ppm foliar spray only): 2 (6-25% of disease on untreated plants) |
| CON=C(C(=O)OC)c1ccccc1NC(=O)c1ccccc1 (single isomer, unassigned) [Compound 12] |  |  |  |  |  |  | I = Interligular or internodal length reduction ([7]; visual score after 2-6 weeks): 1 (10-30%); R = Retardation ([7]; visual score after 2-6 weeks): 2 (31-60%); G = Greening effect [8]: 1 (10-30%); I = Interligular or internodal length reduction [8]: 1 (10-30%); R = Retardation [8]: 2 (31-60%) |
| CON=C(C(=O)OC)c1ccccc1NC(=O)c1ccco1 (single isomer, unassigned) [Compound 13] | 0 (60-100% of disease on untreated plants) | 0 (60-100% of disease on untreated plants) |  | 0 (60-100% of disease on untreated plants) | 2 (6-25% of disease on untreated plants) | 0 (60-100% of disease on untreated plants) | I = Interligular or internodal length reduction ([7]; visual score after 2-6 weeks): 1 (10-30%); R = Retardation ([7]; visual score after 2-6 weeks): 2 (31-60%); G = Greening effect [8]: 1 (10-30%); I = Interligular or internodal length reduction [8]: 1 (10-30%); R = Retardation [8]: 2 (31-60%) |
| CON=C(C(=O)OC)c1ccccc1NC(=O)c1ccco1 (single isomer, unassigned) [Compound 14] |  |  |  |  |  |  | I = Interligular or internodal length reduction [8]: 1 (10-30%); R = Retardation [8]: 1 (10-30%) |
| CON=C(C(=O)OC)c1ccccc1NC(=O)c1cccs1 (single isomer, unassigned) [Compound 15] |  |  |  |  |  |  | G = Greening effect [8]: 1 (10-30%); I = Interligular or internodal length reduction [8]: 1 (10-30%); R = Retardation [8]: 1 (10-30%) |
| CON=C(C(=O)OC)c1cccc2c1oc1ccccc12 (single isomer, unassigned) [Compound 17] | 3 (trace - 5% of disease on untreated plants) | 0 (60-100% of disease on untreated plants) | 1 (26-59% of disease on untreated plants) | 0 (60-100% of disease on untreated plants) | 0 (60-100% of disease on untreated plants) | 2 (6-25% of disease on untreated plants) |  |
| CON=C(C(=O)OC)c1cccc2c1oc1ccccc12 (single isomer, unassigned) [Compound 18] | 3 (trace - 5% of disease on untreated plants) | 0 (60-100% of disease on untreated plants) | 4 | 1 (26-59% of disease on untreated plants) | 1 (26-59% of disease on untreated plants) | 4 |  |
| CON=C(C(=O)OC)c1cccc2c1Oc1ccccc1O2 (single isomer, unassigned) [Compound 32] | 4 | 3 (trace - 5% of disease on untreated plants) | 2 (6-25% of disease on untreated plants) | 0 (60-100% of disease on untreated plants) | 1 (26-59% of disease on untreated plants) | 4 |  |
| CON=C(C(=O)OC)c1ccccc1N(C)C(=O)c1cccs1 (single isomer, unassigned) [Compound 33] | 0 (60-100% of disease on untreated plants) | 0 (60-100% of disease on untreated plants) | 4 | 0 (60-100% of disease on untreated plants) | 0 (60-100% of disease on untreated plants) | 0 (60-100% of disease on untreated plants) |  |
| CO/N=C(/C(=O)OC)c1ccccc1Oc1ccccc1 [Compound 6, methyl O-methyl(2-phenoxyphenyl)oximino-acetate] | 4 | 4 | 4 | 3 (trace - 5% of disease on untreated plants) | 3 (trace - 5% of disease on untreated plants) | 4 |  |

Reference: US4999042A, “Phenyl oximino-acetate fungicides” (Imperial Chemical Industries PLC, priority 1986, dated 1991)
